# Experimental data reported in PMC7227612 (Clinical cancer research : an official journal of the …, 2009).
# Marks after values point to notes of the source that are not given here.
# Key:
# [1] = system: GSK3β; assay: Inhibition of GSK3β phosphorylation and activity in glioma cells in vitro; type: cell-based; conditions: Supplementary Fig. S1, concentration dependent
# [2] = Toxicity and dose limiting toxicity; type: in vivo
# [3] = system: phosphorylated GSK3β (pGSK3β); assay: pGSK3β in patient peripheral blood mononuclear cells; type: in vivo, human
# [4] = Steady-state plasma pharmacokinetics, group B; type: in vivo, human; conditions: for Cmax / Tmax: human, plasma, oral; for Cmax: Cmax,ss
# [5] = system: glioma cells; assay: Cytotoxic activity against glioma cells in vitro; type: cell-based; conditions: Supplementary Fig. S1, concentration dependent
# [6] = system: recurrent malignant glioma; assay: Tumor response; type: in vivo, human
# [7] = Steady-state plasma pharmacokinetics, group A; type: in vivo, human; conditions: for Cav,ss: geometric mean (%CV); for Cmax / Tmax: human, plasma, oral
# [8] = Group B, 500 mg twice daily, Patient 2
# [9] = Group B, 1,000 mg daily, Patient 1
# [10] = Group B, 1,000 mg daily, Patient 2
# [11] = 500 mg, Group B, 500 mg twice daily, Patient 2
# [12] = 1000 mg daily, Group B, 1,000 mg daily, Patient 1
# [13] = 1000 mg daily, Group B, 1,000 mg daily, Patient 2
structure (smiles),measurement,setting,value
Cn1cc(C2=C(c3cn(C4CCN(Cc5ccccn5)CC4)c4ccccc34)C(=O)NC2=O)c2ccccc21 [Enzastaurin],Phosphorylation and activity of GSK3β,[1],inhibits
same,Dose-limiting toxicities,"[2]; human, in vivo",thrombocytopenia and prolonged QTc
same,"Elevated ALT, Grade 1-2","[2]; human, in vivo",5 (23%)
same,"Elevated ALT, Grade 3-4","[2]; human, in vivo",1
same,"Elevated AST, Grade 1-2","[2]; human, in vivo",9 (41%)
same,"Elevated AST, Grade 3-4","[2]; human, in vivo",0
same,"Hematuria, Grade 1-2","[2]; human, in vivo",1
same,"Hematuria, Grade 3-4","[2]; human, in vivo",0
same,"Hypermagnesemia, Grade 1-2","[2]; human, in vivo",1
same,"Hypermagnesemia, Grade 3-4","[2]; human, in vivo",0
same,"Intracranial hemorrhage, Grade 1-2","[2]; human, in vivo",0
same,"Intracranial hemorrhage, Grade 3-4","[2]; human, in vivo",0
same,"Nausea, Grade 1-2","[2]; human, in vivo",1
same,"Nausea, Grade 3-4","[2]; human, in vivo",0
same,"Proteinuria, Grade 1-2","[2]; human, in vivo",1
same,"Proteinuria, Grade 3-4","[2]; human, in vivo",0
same,"QTc prolongation, Grade 1-2","[2]; human, in vivo",5 (23%)
same,"QTc prolongation, Grade 3-4","[2]; human, in vivo",2 (9%) ^*
same,Relationship between QTcB changes from baseline and plasma concentrations,"[2]; human, in vivo",no significant relationship
same,"Thrombocytopenia, Grade 1-2","[2]; human, in vivo",6 (27%)
same,"Thrombocytopenia, Grade 3-4","[2]; human, in vivo",5 (23%)
same,Patients with dose limiting grade 3 thrombocytopenia,"[2]; human, in vivo, 6 wk",2
same,"Elevated ALT, Grade 5","[2]; number of patients, N = 22",0
same,"Elevated AST, Grade 5","[2]; number of patients, N = 22",0
same,"Hematuria, Grade 5","[2]; number of patients, N = 22",0
same,"Hypermagnesemia, Grade 5","[2]; number of patients, N = 22",0
same,"Nausea, Grade 5","[2]; number of patients, N = 22",0
same,"Proteinuria, Grade 5","[2]; number of patients, N = 22",0
same,"QTc prolongation, Grade 5","[2]; number of patients, N = 22",0
same,"Thrombocytopenia, Grade 5","[2]; number of patients, N = 22",0
same,"Intracranial hemorrhage, Grade 5","[2]; number of patients, N = 22, in the setting of grade 3 thrombocytopenia",1 ^†
same,pGSK3β levels at steady state vs baseline,[3]; five patients who achieved disease control,decreased from baseline
same,pGSK3β at steady state vs baseline,"[3]; one patient with progressive disease, after the first 3 weeks of therapy",increased
same,Kinetics of pGSK3β in peripheral blood mononuclear cells after administration,"[3]; two patients, Fig. 3B",decrease in a time dependent manner
same,CL/F,[4]; [8],27 L/h
same,"Cav,ss",[4]; [8],"3,050 nmol/L"
same,CL/F,[4]; [9],60 L/h
same,"Cav,ss",[4]; [9],"1,340 nmol/L"
same,CL/F,[4]; [10],60 L/h
same,"Cav,ss",[4]; [10],"1,350 nmol/L"
same,Cmax,[4]; [11],4090 nM
same,Tmax,[4]; [11],4 h
same,Cmax,[4]; [12],3010 nM
same,Cmax,[4]; [13],2730 nM
same,Tmax,[4]; [12],4 h
same,Tmax,[4]; [13],2 h
same,Cytotoxicity,[5],direct cytotoxic activity
same,Complete response (patients),[6]; 19 patients evaluable,1
same,Partial response (patients),[6]; 19 patients evaluable,1
same,Objective responses,[6]; 19 patients evaluable for radiographic response,11%
same,Median overall survival,[6]; entire study group,5.7 months
same,Median progression-free survival,[6]; entire study group,1.4 months
same,Duration complete response maintained on therapy,"[6]; one patient, Fig. 2",> 3 y
same,"Cav,ss","[7]; DL 1, 800 mg daily, n = 12","1,130 (89) nmol/L"
same,"Cav,ss","[7]; DL-1, 250 mg twice daily, n = 3","1,040 (124) nmol/L"
same,"Cav,ss","[7]; DL-1, 500 mg daily, n = 5",472 (109) nmol/L
same,Cmax,[7]; 250 mg,1390 nM
same,Tmax,[7]; 250 mg,6.03 h
same,Cmax,[7]; 400 mg,2710 nM
same,Tmax,[7]; 400 mg,4.03 h
same,Cmax,[7]; 500 mg,979 nM
same,Tmax,[7]; 500 mg,2.08 h
same,Tmax,[7]; 800 mg,4 h
